# Assay results taken from paper PMC3077571 (Nature structural & molecular biology, 2011).
# Target: MBP W62F mutant (Escherichia coli, UniProt P0AEX9, S259C/W88F)
# Format: binding
# Details: no sAB
structure (smiles),measurement,value
OC[C@H]1O[C@H](O[C@H]2[C@H](O)[C@@H](O)C(O)O[C@@H]2CO)[C@H](O)[C@@H](O)[C@@H]1O (mixture of isomers) [maltose],decrease in maltose binding energy caused by W62F mutation,~ 2 kcal/mol
